Laboratory results as given in PMC5374619, “The synthetic peptide CIGB-300 modulates CK2-dependent signaling pathways affecting the survival and chemoresistance of non-small cell lung cancer cell lines” (Cancer Cell International, 2017).
Positions of bridges follow the written chain, without caps; N, C: chain ends. Non-standard residues stand in square brackets, D forms with d. Residues, ends and D or L forms follow the SMILES beside them. βAla = NCCC(=O)O

How the values were obtained:
[1] = biological target: T1, α7/C8 (PSMA3) in H125 cells (Homo sapiens, UniProt P25788); experiment: Confocal immunofluorescence, co-occurrence with α7/C8; format: cell-based; details: H125, biotin-conjugated CIGB-300 30 min, cells with cytoplasmic signal, Manders coefficient
T1 construct: endogenous in cells; host or cells: H125 (NCI-H125) human NSCLC cells
Protocol: H125 cells growing on glass coverslips were treated with biotin-conjugated CIGB-300 for 30 min, washed twice with PBS, fixed in ice cold paraformaldehyde, permeabilized and blocked with PBS containing 5% bovine serum albumin for 1 h at RT. α7/C8 protein was detected by incubation with a specific primary antibody diluted in PBS containing 5% BSA, followed by an incubation with a secondary antibody coupled to Alexa 647 and with Streptavidin-FITC conjugated for 1 h at RT. Nuclei were stained with DAPI. Images were obtained in a LSM 510 Meta confocal Zeiss microscope. Confocal images were processed for presentation with ImageJ. Background of each channel was subtracted. Pearson’s and Mander’s coefficients were calculated using the JACoP plugin [38]. Single cell analysis for 15–20 representative cells was performed on three independent experiments.

[2] = 24 h post intravenous injection; cited from earlier work
[3] = system: NF-κB-RE-luc in H125 cells; experiment: NF-κB-dependent reporter gene expression; format: cell-based, human; details: H125, PMA 16 nM 6 h, CIGB-300 IC25 during first hour, dual luciferase
Protocol: H125 cells were transiently co-transfected with NF-κB-RE-luc Luciferase Reporter Vector pGL4.32 and the Renilla Luciferase Control Reporter Vector pRL-TK (Promega, Madison, WI) in a 10:1 ratio, using Fugene (Promega) following manufacturer’s instructions. Briefly, 1 × 10^5 cells/well were seeded onto 24-well plates and transfected the next day. Six hours after adding transfection reagents, cells were washed and complete media was added. After an overnight recovery, cells were treated for 6 h with PMA (16 nM), in presence or not of CIGB-300 (IC25) during the first hour. Finally cells were lysed and the luciferase activities were determined using the Dual-Luciferase Reporter Assay System (Promega) and normalized to the constitutive Renilla luciferase activity.

[4] = system: proteasome in H125 cells; experiment: Proteasome-Glo Chymotrypsin-Like Cell-Based Assay; design: species or system human; details: H125, CIGB-300 30 min, luminescence
Protocol: Proteasome activity was assessed in H125 cells using the Proteasome-Glo Chymotrypsin-Like Cell-Based Assay (Promega) following manufacturer’s instructions. Briefly, H125 cells were plated onto 96-well plates and 24 h later treated with CIGB-300 (30 min) or with Bortezomib (4 h). Briefly: 100 µl of Proteasome-Glo™ Cell-Based Reagent were added to each 100 µl of sample and incubated at RT for 10 min. Luminescence emission was measured with a Multimode Microplate Reader, Synergy luminometer (Biotek).

[5] = up to 40 mg/kg/day intravenously; cited from earlier work
[6] = system: H125 spheroids; experiment: 3D growth inhibition assay, multicellular tumor spheroids; format: cell-based, human; details: IC25 and IC50 doses of monolayers, after 5 days of treatment, medium replaced every 48 h
[7] = system: β-CATENIN in H125 cells; experiment: Western blot of cytoplasmic β-CATENIN; format: cell-based, human
Protocol: (§1) For Wnt/β-CATENIN pathway studies, H125 sub-confluent monolayers were first incubated during 24 h with 50% of CM containing the wnt3a factor and then treated for another 6 h with a low-lethal dose of CIGB-300 (IC25) or during 2 h with the CK2 competitive inhibitor TBB (25 μM) as a control. […] For the analysis of NF-κB downstream targets, H125, A549 or A549-Rcisp cells were incubated for 2 h with CIGB-300 (IC50). In the case of Bortezomib, cells were previously pretreated with 8 nM of this drug during 4 h.
(§2) In order to determine β-CATENIN expression levels, cytoplasmic proteins were extracted using saponin buffer. Briefly, monolayer cultures were incubated for 20 min with ice-cold 0.1% saponin lysis buffer (25 mM Hepes, 75 mM potassium acetate and 0.1% saponin plus phosphatase and protease inhibitors). The extraction procedure was carried out twice and the extracts were pooled prior to their centrifugation. For NF-κB detection, nuclear and cytoplasmic proteins were separated by differential centrifugation following Abcam protocol. Briefly, semiconfluent monolayers were washed twice with ice-cold PBS and then collected in 250 μl of Fractionation Buffer (HEPES 20 mM, KCl 10 mM, MgCl2 2 mM, EDTA 1 mM and 2-Mercaptoethanol […]) with protease and phosphatase inhibitors by scrapping with a Teflon scrapper. […]

[8] = system: A549 cells; experiment: Cell viability, MTS assay, monolayer; format: cell-based, human; details: dose selected from the viability results
Protocol: (§3) We used two human non-small cell lung cancer (NSCLC) derived cell lines: the adenosquamous cell carcinoma NCI-H125 (CRL-5801) and the adenocarcinoma NIH-A549 (CCL-185). The murine L Wnt-3A cell line (CRL-2647) was used in order to produce conditioned media (CM) containing the wnt3a factor, following ATCC’s instructions. All cell lines were obtained from ATCC. H125 was grown in RPMI medium supplemented with 10% FBS and 80 µg/ml gentamycin. A549 and L cells were grown in DMEM media, with the above mentioned supplementation. All cell lines were cultured at 37 °C in a humidified air atmosphere with 5% CO2.
(§4) To assess the effect of CIGB-300 or cisplatin on cell viability, 1 × 10^4 cells/well were seeded into 96 well plates in standard culture conditions. Twenty-four hours later cells were treated with different doses of CIGB-300 (25–400 μM) or cisplatin (0.3–30 μM) during 72 h. Cell proliferation was evaluated after 72 h using the MTS assay (Celltiter 96TM Non Radioactive Proliferation Assay, Promega), as described by the manufacturer. Data were analyzed using the R package “ic50” [33] in order to determine the IC50 values for each drug. Alternatively, proliferative potential was determined by assessing cell number. Briefly, cells were seeded onto 35 mm Petri dishes, treated and after 72 h wells were washed twice with PBS, trypsinized, centrifuged, resuspended in a proper volume and finally counted using an hemocytometer and trypan blue exclusion. For apoptosis determination, A549 and A549-cispR cells growing on glass coverslips were treated with 300 μM of CIGB-300 for 18 h and then stained with Acridine orange (10 μg/ml) and Ethidium bromide (10 μg/ml). Visualization was performed with a Nikon, Eclipse E400 epifluorescence microscope. Uniform green nuclei with organized structure were considered as live cells. Bright green or orange to red nuclei were classified as early or late apoptotic cells respectively. Uniformly orange to red nuclei with organized structure were ascribed as necrotic cells. The percentage of dead cells was determined for each cell line.

[9] = system: H125 cells; experiment: Cell viability, MTS assay, monolayer; format: cell-based, human
Protocol: as §3, §4

[10] = system: NF-κB p65/relA in H125 cells; experiment: Western blot of nuclear p65/RelA; format: cell-based, human; details: H125, low-lethal dose (IC25), Western blot of nuclear extracts, with or without PMA
Protocol: as §1, §2

[11] = system: A549 and A549-cispR cells; experiment: Apoptosis, acridine orange/ethidium bromide double staining; format: cell-based, human; details: 300 μM CIGB-300, 18 h
Protocol: To assess the effect of CIGB-300 or cisplatin on cell viability, 1 × 10^4 cells/well were seeded into 96 well plates in standard culture conditions. Twenty-four hours later cells were treated with different doses of CIGB-300 (25–400 μM) or cisplatin (0.3–30 μM) during 72 h. Cell proliferation was evaluated after 72 h using the MTS assay (Celltiter 96TM Non Radioactive Proliferation Assay, Promega), as described by the manufacturer. Data were analyzed using the R package “ic50” [33] in order to determine the IC50 values for each drug. Alternatively, proliferative potential was determined by assessing cell number. Briefly, cells were seeded onto 35 mm Petri dishes, treated and after 72 h wells were washed twice with PBS, trypsinized, centrifuged, resuspended in a proper volume and finally counted using an hemocytometer and trypan blue exclusion. For apoptosis determination, A549 and A549-cispR cells growing on glass coverslips were treated with 300 μM of CIGB-300 for 18 h and then stained with Acridine orange (10 μg/ml) and Ethidium bromide (10 μg/ml). Visualization was performed with a Nikon, Eclipse E400 epifluorescence microscope. Uniform green nuclei with organized structure were considered as live cells. Bright green or orange to red nuclei were classified as early or late apoptotic cells respectively. […] The percentage of dead cells was determined for each cell line.

[12] = system: A549 and A549-cispR cells; experiment: Viability by cell number after cisplatin; format: cell-based, human; details: cell number 72 h after cisplatin, untreated set as 100%
Excerpt: Parental A549 cells were maintained in culture during the same period.

CSCC[C@@H]1NC(=O)[C@H](Cc2c[nH]c3ccccc23)NC(=O)[C@@H](NC(=O)CCNC(=O)[C@H](CCC(N)=O)NC(=O)[C@@H]2CCCN2C(=O)[C@@H]2CCCN2C(=O)[C@H](CCCNC(=N)N)NC(=O)[C@H](CCCNC(=N)N)NC(=O)[C@H](CCCNC(=N)N)NC(=O)[C@H](CCC(N)=O)NC(=O)[C@H](CCCNC(=N)N)NC(=O)[C@H](CCCNC(=N)N)NC(=O)[C@H](CCCCN)NC(=O)[C@H](CCCCN)NC(=O)[C@H](CCCNC(=N)N)NC(=O)CN)CSSC[C@@H](C(=O)O)NC(=O)[C@H]([C@@H](C)O)NC(=O)CNC(=O)[C@H](CC(C)C)NC(=O)[C@H](Cc2c[nH]cn2)NC(=O)[C@H](CCCNC(=N)N)NC(=O)[C@@H]2CCCN2C(=O)[C@H](CO)NC1=O [CIGB-300] (H-GRKKRRQRRRPPQ[βAla]CWMSPRHLGTC-OH; disulfide 15-25; N-terminus and C-terminus assumed)
α7/C8 coincident with CIGB-300 presence [1]: More than 80%
peptide uptake at tumor site [2]: up to 1.5%
NF-κB transcriptional response [3]: decreased NF-κB transcriptional response
proteasomal activity [4]: increased proteasomal activity
tolerability of high doses [5]: safe, well tolerated and non-toxic
volume of treated spheroids compared with untreated controls [6]: significantly lower
β-CATENIN cytoplasmic accumulation with active Wnt pathway ([7]; H125, 24 h 50% CM with wnt3a, then CIGB-300 IC25 6 h or TBB 25 μM 2 h): partially reverted
basal levels of cytoplasmic β-CATENIN ([7]; H125, low-lethal dose CIGB-300 6 h, no wnt3a): not reduced
IC25 (low-lethal dose) [8]: 150 µM
IC25 (low-lethal dose) ([9]; dose selected from the viability results): 60 µM
nuclear levels of p65/relA [10]: reduced the nuclear levels
number of dead cells on A549-cispR vs A549 [11]: significantly increased

N.N.[Cl][Pt][Cl] [cisplatin, cisdiammine-dichloro-platinum, reference compound]
IC50 ([9]; MTS assay, 72 h treatment, R package ic50, three independent experiments): 1 µM
viability of A549-cispR relative to parental A549 after cisplatin treatment [12]: twofold higher
